These results are taken from publication PMC8097444 (Antimicrobial Agents and Chemotherapy, 2021).

Like-named read-outs stand apart in the source and are kept apart here.

The target in one experiment is SARS-CoV-2 3CL^pro (Severe acute respiratory syndrome coronavirus 2, UniProt P0DTD1). Put plainly: SARS-CoV-2 3CLpro fluorogenic. The following applies: for inhibition of 3CL^pro in screen: 10 μM drug, hit of 1,068 or 2,701 FDA-approved drug collection. It counts as biochemical.
A further experiment deals with SARS-CoV-2. The following applies: cited from earlier work.
The test system of another experiment is COVID-19 patients. The following applies: cited from earlier work.
Experiment [1] deals with SARS-CoV-2 in human lung cells. The following applies: in vitro assay; cited from earlier work.
Another experiment concerns the target SARS-CoV-2 PL^pro (Severe acute respiratory syndrome coronavirus 2, UniProt P0DTD1). Put plainly: SARS-CoV-2 PLpro fluorogenic inhibition assay: screening at 10 μM and IC50. It counts as biochemical.
For a further experiment, the system named is SARS-CoV-2 virus. In kind it is cell-based. The following applies: for selectivity index (SI): derived from CC50 and EC50.
Another experiment deals with SARS-CoV. The following applies: read-out: EC50 against SARS-CoV; cited from earlier work.
[2] abbreviates: read-out: EC50 against SARS-CoV-2 in vitro.

Turning to `CC(C)(C)NC(=O)N[C@H](C(=O)N1C[C@H]2[C@@H]([C@H]1C(=O)NC(CC1CCC1)C(=O)C(N)=O)C2(C)C)C(C)(C)C` (stereo partly drawn) [Boceprevir], the “inhibition of 3CL^pro in screen” value against SARS-CoV-2 3CL^pro was “active at 10 μM”.
Take `O=c1c2ccccc2[se]n1-c1ccccc1` [Ebselen]: the “inhibition of 3CL^pro in screen” value against SARS-CoV-2 3CL^pro was “active at 10 μM”.
By EC50 is commonly meant the midpoint of the concentration-response curve. Take `CCC(CC)COC(=O)[C@H](C)N[P@](=O)(OC[C@H]1O[C@@](C#N)(c2ccc3c(N)ncnn23)[C@H](O)[C@@H]1O)Oc1ccccc1` [Remdesivir]: in the experiment with SARS-CoV-2 (read-out: EC50, SARS-CoV-2 viral replication), the EC50 is 0.7 µM. In addition, the “benefit in clinical trials on COVID-19 patients” value in the experiment with COVID-19 patients is on record as 68%.
On to `CCN(CC)CCCC(C)Nc1ccnc2cc(Cl)ccc12` (stereo not drawn) [chloroquine], for which the half-maximal effective concentration (EC50) in the experiment on SARS-CoV-2 (setting [2]) is 1.13 µM. In addition, the “inhibitory effects on SARS-CoV-2 in human lung cells” value in experiment [1] was “no inhibitory effects”.
Regarding `NC(=O)c1nc(F)c[nH]c1=O` [favipiravir], the “inhibition of SARS-CoV-2 replication” value in the experiment with SARS-CoV-2 is listed as “weak inhibition”.
For `CCN(CCO)CCCC(C)Nc1ccnc2cc(Cl)ccc12` (stereo not drawn) [hydroxychloroquine], in the experiment with SARS-CoV-2, the “inhibition of SARS-CoV-2 in vitro” value was “shown to inhibit SARS-CoV-2 in vitro”. Moreover, the “clinical benefit against COVID-19” value with COVID-19 patients is given as “no clinical benefit”.
For orientation: IC50 means the concentration needed to halve the response being measured. Take `N[C@@H](Cc1cc(I)c(Oc2cc(I)c(O)c(I)c2)c(I)c1)C(=O)O` [levothyroxine]: half-maximal inhibition against SARS-CoV-2 3CL^pro (IC50) was put at 19.2 ± 1.2 µM. For the same compound, the 50% inhibitory concentration (IC50) at SARS-CoV-2 PL^pro is 15.3 ± 4.2 µM. Besides, in the experiment with SARS-CoV-2 virus, the “inhibition of virus, postentry treatment” value is given as “postentry treatment could not inhibit the virus”; the “reduction of viral plaques, full-time treatment” value (“reduction of viral plaques” for short) was “effective in reducing viral plaques”; the “selectivity index (SI)” value is more than 14.3.
For the compound `CN(C)C(=O)C(CCN1CCC(O)(c2ccc(Cl)cc2)CC1)(c1ccccc1)c1ccccc1` [loperamide], in the experiment on SARS-CoV-2 virus, the “inhibition of virus, postentry treatment” value was “postentry treatment could still inhibit the virus” and the “reduction of viral plaques” value is on record as “effective in reducing viral plaques”. Further, the “antiviral activity, entry step” value with SARS-CoV-2 virus (entry treatment) was “not the entry step”.
Take `COC(=O)C1=C(C)NC(C)=C(C(=O)OCCN2CCN(C(c3ccccc3)c3ccccc3)CC2)C1c1cccc([N+](=O)[O-])c1` (stereo not drawn) [manidipine-2HCl]: the IC50 at SARS-CoV-2 3CL^pro was found to be 10.4 ± 1.6 µM. Moreover, the midpoint of inhibition at SARS-CoV-2 PL^pro, the IC50, lay at 14.2 ± 1.7 µM. Further, in the experiment on SARS-CoV-2 virus, the “inhibition of virus, postentry treatment” value is “postentry treatment could still inhibit the virus”; the “reduction of viral plaques” value is “effective in reducing viral plaques”; the “selectivity index (SI)” value is more than 6.9.
For `CNCCCC12CCC(c3ccccc31)c1ccccc12` [maprotiline], in the experiment on SARS-CoV-2 virus, the “antiviral activity, entry step” value is on record as “not the entry step”; the “inhibition of virus, postentry treatment” value is on record as “postentry treatment could still inhibit the virus”; the “reduction of viral plaques” value is on record as “effective in reducing viral plaques”.
With `Nc1nc2c(ncn2CCC(CO)CO)c(=O)[nH]1` [penciclovir], the “inhibition of SARS-CoV-2 replication” value in the experiment with SARS-CoV-2 is recorded as “weak inhibition”.
With `COC(=O)[C@H]1[C@H]2C[C@@H]3c4[nH]c5cc(OC)ccc5c4CCN3C[C@H]2C[C@@H](OC(=O)c2cc(OC)c(OC)c(OC)c2)[C@@H]1OC` [reserpine], 5.7 ± 0.7 µM corresponded to half-maximal inhibition on SARS-CoV-2 PL^pro (IC50). Further, in the experiment on SARS-CoV-2 virus, the “reduction of viral plaques” value is given as “effective in reducing viral plaques” and the “selectivity index (SI)” value is recorded as more than 15.2. In addition, in the experiment on SARS-CoV, the EC50 was 3.4 µM.
Regarding `NC(=O)c1ncn([C@@H]2O[C@H](CO)[C@@H](O)[C@H]2O)n1` [ribavirin], in the experiment with SARS-CoV-2, the “inhibition of SARS-CoV-2 replication” value is reported as “weak inhibition”.
Take `Cc1ccc(C(=O)c2cc(O)c(O)c([N+](=O)[O-])c2)cc1` [tolcapone]: on SARS-CoV-2 3CL^pro, half-maximal inhibition (IC50) was put at 7.9 µM and the “inhibition of 3CL^pro in screen” value was “active at 10 μM”. In addition, the “antiviral activity (figure not shown)” value in the experiment with SARS-CoV-2 virus (tolcapone) was “weak antiviral activity only at 50 μM”.
Take ivermectin: the EC50 with SARS-CoV-2 (setting [2]) is 2.5 µM.
As to lopinavir/ritonavir, the “inhibition of SARS-CoV-2 replication” value in the experiment on SARS-CoV-2 is “weak inhibition”.
